Where two headings read alike, the source gives them in different places.

These results are taken from patent publication US20160297761A1, “NOVEL INHIBITORS OF GLUTAMINASE” (RHIZEN PHARMACEUTICALS SA, priority 2014, published 2016).

Test [1] has as its target T1, L-glutaminase present in mice brain homogenate (Glutaminase(Brain)) (Mus musculus, UniProt D3Z7P3).
T1 sequence (D3Z7P3 55-674): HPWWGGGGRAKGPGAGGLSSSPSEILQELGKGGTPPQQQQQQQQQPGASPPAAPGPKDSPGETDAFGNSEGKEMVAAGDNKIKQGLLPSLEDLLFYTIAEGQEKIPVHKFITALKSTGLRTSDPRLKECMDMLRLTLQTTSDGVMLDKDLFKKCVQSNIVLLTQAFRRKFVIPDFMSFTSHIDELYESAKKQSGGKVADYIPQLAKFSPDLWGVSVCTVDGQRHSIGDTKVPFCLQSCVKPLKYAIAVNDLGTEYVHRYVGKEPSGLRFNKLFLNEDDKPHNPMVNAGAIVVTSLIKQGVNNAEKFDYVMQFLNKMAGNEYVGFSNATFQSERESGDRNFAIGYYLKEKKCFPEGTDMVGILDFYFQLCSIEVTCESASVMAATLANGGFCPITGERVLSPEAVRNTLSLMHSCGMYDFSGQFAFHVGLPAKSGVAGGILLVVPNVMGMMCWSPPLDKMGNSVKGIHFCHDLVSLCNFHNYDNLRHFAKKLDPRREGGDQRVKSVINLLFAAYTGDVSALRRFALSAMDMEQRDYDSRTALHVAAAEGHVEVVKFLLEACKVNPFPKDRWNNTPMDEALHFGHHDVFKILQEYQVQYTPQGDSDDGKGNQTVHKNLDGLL
Put plainly: Glutaminase enzyme activity using glutaminase enzyme from mice brain/kidney homogenate (Nessler's reagent, ammonia). The class given is biochemical. Conditions: for inhibition at 0.1 µM: read-out: Glutaminase(Brain) activity % inhibition 0.1 μM; for inhibition at 1 µM: read-out: Glutaminase(Brain) activity % inhibition @1 μM. The protocol:
Assay 3: Determination of Glutaminase Enzyme Activity Using Glutaminase
Enzyme from Mice Brain/Kidney
Step 1: Preparation of Tissue Homogenates: Male Balb/c mice were administered 0.28 M ammonium chloride in drinking water for 7 days. The animals were sacrificed and brain/kidney organs collected on dry ice. […] The tissue was homogenized and supernatants were stored at −80° C. until the enzyme assay was performed.
Aim: Compounds were assessed for their ability to inhibit the enzymatic activity of L-glutaminase present in mice brain/kidney homogenate.
Protocol: The assay was performed using a colorimetric method using Nessler's Reagent by quantifying the amount of ammonia formed as a by product during the enzymatic conversion of L-glutamine to glutamate. In the routine assay, 16 μl of tissue homogenate is added to 33 μl of Tris-Hcl phosphate buffer (pH 8) along with 1 μl of DMSO/test compound containing the desired final concentration and vortexed briefly. 50 μl of 20 mM L-glutamine Tris buffer is added to start the reaction and incubated for 15 minutes at 37° C. The ammonia formed is detected by adding 20 μl of reaction mixture to cold water in a 96 well plate followed by 20 μl of Nessler's reagent. The colour developed is measured at 450 nm. Data Analysis: Activity of the test compound is reported as % inhibition and the data is analyzed using Graphpad Prism (Graphpad software; San Diego Calif.) for IC50 determination.

For a further test, the system named is cancer cell lines. Put plainly: In vitro cell proliferation assay in cancer cell lines (MTT dye reduction, 72 h). Format: cell-based. Conditions: cancer cell line not named, 10% FBS media. On the procedure: Assay 4: In Vitro Cell Proliferation Assay in Cancer Cell Lines
Growth inhibition assays were carried out using 10% FBS supplemented media. Cells were seeded at a concentration of 5000-20,000 cells/well in a 96-well plate. Test compounds at a concentration range from 0.01 to 10000 nM were added after 24 hours. Growth was assessed using the 3-[4,5-dimethylthiazol-2-yl]-2,5-diphenyltetrazolium bromide (MIT) dye reduction test at 0 h (prior to the addition of the test compound) and 72 hours after the addition of test compound. Absorbance was read on a Fluostar Optima (BMG Labtech, Germany) at a wave length of 450 nm. Data were analysed using GraphPad Prism and percent inhibition due to the test compound compared to the control was calculated accordingly.

For `O=C(Cc1cccc(OC(F)(F)F)c1)Nc1ccc(CC2CC(c3nnc(NC(=O)Cc4cccnc4)s3)C2)cn1` (stereo not drawn) [Example-108, 2-(Pyridin-3-yl)-N-(5-(3-((6-(2-(3-(trifluoromethoxy)phenyl)acetamido)pyridin-3-yl)methyl)cyclobutyl)-1,3,4-thiadiazol-2-yl)acetamide], the inhibition at 0.1 µM in test [1] (0.1 μM, mice brain homogenate) was 75 to 100%. For the same molecule, in test [1] (1 μM, mice brain homogenate), the inhibition at 1 µM is 75 to 100%. Moreover, in the test on cancer cell lines, the GI50 was 100 to 400 nM.
Regarding `N#Cc1cccc(CC(=O)Nc2nnc(CCCCc3ccc(NC(=O)Cc4cccc(OC(F)(F)F)c4)nc3)s2)c1` [Example-17, 2-(3-Cyanophenyl)-N-(5-(4-(6-(2-(3-(trifluoromethoxy)phenyl)acetamido)pyridin-3-yl)butyl)-1,3,4-thiadiazol-2-yl)acetamide], the inhibition at 0.1 µM in test [1] (0.1 μM, mice brain homogenate) was 25 to 50%. Besides, the inhibition at 1 µM in test [1] (1 μM, mice brain homogenate) lay in the range of 75 to 100%. In the test on cancer cell lines, the GI50 was 100 to 400 nM.
Turning to `O=C(Cc1cccnc1)Nc1ccc(CCCCc2nnc(NC(=O)Cc3cccc(OC(F)(F)F)c3)s2)cn1` [Example-11, 2-(Pyridin-3-yl)-N-(5-(4-(5-(2-(3-(trifluoromethoxy)phenyl)acetamido)-1,3,4-thiadiazol-2-yl)butyl)pyridin-2-yl)acetamide], the inhibition at 0.1 µM in test [1] (0.1 μM, mice brain homogenate) lay within 75 to 100%. In addition, in test [1] (1 μM, mice brain homogenate), the inhibition at 1 µM lay in the range of 75 to 100%. In addition, the concentration for 50% growth inhibition (GI50) in the test with cancer cell lines is less than 100 nM.
As to `CCC(Cl)C(=O)Nc1nnc(CCCCc2ccc(NC(=O)Cc3cccc(OC(F)(F)F)c3)nc2)s1` (stereo not drawn) [Example-24, 2-Chloro-N-(5-(4-(6-(2-(3-(trifluoromethoxy)phenyl)acetamido)pyridin-3-yl)butyl)-1,3,4-thiadiazol-2-yl)butanamide], in test [1] (0.1 μM, mice brain homogenate), the inhibition at 0.1 µM was less than 25%. For the same molecule, in test [1] (1 μM, mice brain homogenate), the inhibition at 1 µM is less than 25%. This molecule showed a concentration for 50% growth inhibition (GI50) in the test with cancer cell lines of 400 to 1000 nM.
For `O=C(Cc1ccccn1)Nc1ccc(CCCCc2nnc(NC(=O)Cc3cccc(OC(F)(F)F)c3)s2)c(F)n1` [Example-32, N-(6-fluoro-5-(4-(5-(2-(3-(trifluoromethoxy)phenyl)acetamido)-1,3,4-thiadiazol-2-yl)butyl)pyridin-2-yl)-2-(pyridin-2-yl)acetamide], the inhibition at 0.1 µM in test [1] (0.1 μM, mice brain homogenate) is less than 25%. The inhibition at 1 µM in test [1] (1 μM, mice brain homogenate) fell in the range of 75 to 100%. Besides, the GI50 in the test on cancer cell lines lay in the range of 400 to 1000 nM.
For the molecule `O=C(Cc1ccccn1)Nc1ccc(CCCCc2nnc(NC(=O)Cc3cccnc3)s2)c(F)n1` [Example-38, N-(6-fluoro-5-(4-(5-(2-(pyridin-3-yl)acetamido)-1,3,4-thiadiazol-2-yl)butyl)pyridin-2-yl)-2-(pyridin-2-yl)acetamide], the inhibition at 0.1 µM in test [1] (0.1 μM, mice brain homogenate) was in the range of 25 to 50%. The inhibition at 1 µM in test [1] (1 μM, mice brain homogenate) was 75 to 100%. The GI50 in the test with cancer cell lines is less than 100 nM.
The like results for `O=C(Cc1cccnc1)Nc1ccc(CCCCc2nnc(NC(=O)Cc3cccc(Cl)c3)s2)cn1` [Example-18, 2-(3-Chlorophenyl)-N-(5-(4-(6-(2-(pyridin-3-yl)acetamido)pyridin-3-yl)butyl)-1,3,4-thiadiazol-2-yl)acetamide] were, in that order, 50 to 75%, 75 to 100% and 100 to 400 nM.
As for `O=C(Cc1cccc(OC(F)(F)F)c1)Nc1ccc(CCCCc2nnc(NC(=O)Cc3cccc(OC(F)(F)F)c3)s2)cn1` [Example-16, 2-(3-(Trifluoromethoxy)phenyl)-N-(5-(4-(5-(2-(3-(trifluoromethoxy)phenyl)acetamido)-1,3,4-thiadiazol-2-yl)butyl)pyridin-2-yl)acetamide], the inhibition at 0.1 µM in test [1] (0.1 μM, mice brain homogenate) was in the range of 25 to 50%. In addition, in test [1] (1 μM, mice brain homogenate), the inhibition at 1 µM fell in the range of 50 to 75%. The same molecule returned a GI50 in the test with cancer cell lines of less than 100 nM.
For the molecule `O=C(Cc1cccc(OC(F)(F)F)c1)Nc1ccc(CCCCc2nnc(NC(=O)Cc3cccnc3)s2)c(F)n1` [Example-21, N-(6-Fluoro-5-(4-(5-(2-(pyridin-3-yl)acetamido)-1,3,4-thiadiazol-2-yl)butyl)pyridin-2-yl)-2-(3-(trifluoromethoxy)phenyl)acetamide], in test [1] (0.1 μM, mice brain homogenate), the inhibition at 0.1 µM was in the range of 50 to 75%. Further, the inhibition at 1 µM in test [1] (1 μM, mice brain homogenate) fell in the range of 75 to 100%. In the test on cancer cell lines, this molecule showed a GI50 of less than 100 nM.
The like results for `CS(=O)(=O)Nc1cccc(CC(=O)Nc2nnc(CCCCc3ccc(NC(=O)Cc4cccc(OC(F)(F)F)c4)nc3)s2)c1` [Example-30, 2-(3-(Methylsulfonamido)phenyl)-N-(5-(4-(6-(2-(3-(trifluoromethoxy)phenyl)acetamido)pyridin-3-yl)butyl)-1,3,4-thiadiazol-2-yl)acetamide] were, in that order, 50 to 75%, 75 to 100% and 1000 to 5000 nM.
Consider `CS(=O)(=O)Nc1ccc(CC(=O)Nc2nnc(CCCCc3ccc(NC(=O)Cc4cccc(OC(F)(F)F)c4)nc3)s2)cc1` [Example-31, 2-(4-(Methylsulfonamido)phenyl)-N-(5-(4-(6-(2-(3-(trifluoromethoxy)phenyl)acetamido)pyridin-3-yl)butyl)-1,3,4-thiadiazol-2-yl)acetamide], for which, in test [1] (0.1 μM, mice brain homogenate), the inhibition at 0.1 µM was 50 to 75%. For the same molecule, the inhibition at 1 µM in test [1] (1 μM, mice brain homogenate) was in the range of 75 to 100%. In addition, the GI50 with cancer cell lines was 5000 to 10000 nM.
Turning to `O=C(Cc1cccnc1)Nc1ccc(CCCCc2nnc(NC(=O)Cc3cccc(F)c3)s2)cn1` [Example-20, 2-(3-Fluorophenyl)-N-(5-(4-(6-(2-(pyridin-3-yl)acetamido)pyridin-3-yl)butyl)-1,3,4-thiadiazol-2-yl)acetamide], the inhibition at 0.1 µM in test [1] (0.1 μM, mice brain homogenate) lay in the range of 75 to 100%. Moreover, the inhibition at 1 µM in test [1] (1 μM, mice brain homogenate) lay in the range of 75 to 100%. The molecule also came in with a GI50 in the test with cancer cell lines of 400 to 1000 nM.
`O=C(Cc1cccc(OC(F)(F)F)c1)Nc1ccc(CC2CC(c3nnc(NC(=O)Cc4ccccn4)s3)C2)cn1` (stereo not drawn) [Example-107, 2-(Pyridin-2-yl)-N-(5-(3-((6-(2-(3-(trifluoromethoxy)phenyl)acetamido)pyridin-3-yl)methyl)cyclobutyl)-1,3,4-thiadiazol-2-yl)acetamide]: the inhibition at 0.1 µM in test [1] (0.1 μM, mice brain homogenate) is 25 to 50%. Also, the inhibition at 1 µM in test [1] (1 μM, mice brain homogenate) was 50 to 75%. In the test with cancer cell lines, this molecule came in with a 50% growth inhibitory concentration (GI50) of 400 to 1000 nM.
For `O=C(Cc1cccc(OC(F)(F)F)c1)Nc1ccc(CCCCc2nnc(NC(=O)Cc3cnccn3)s2)cn1` [Example-28, 2-(Pyrazin-2-yl)-N-(5-(4-(6-(2-(3-(trifluoromethoxy)phenyl)acetamido)pyridin-3-yl)butyl)-1,3,4-thiadiazol-2-yl)acetamide], the inhibition at 0.1 µM in test [1] (0.1 μM, mice brain homogenate) was in the range of 75 to 100%. Further, the inhibition at 1 µM in test [1] (1 μM, mice brain homogenate) was 50 to 75%. In addition, in the test with cancer cell lines, the 50% growth inhibitory concentration (GI50) was in the range of 1000 to 5000 nM.
For the molecule `O=C(Cc1cccc(OC(F)(F)F)c1)Nc1ccc(CCCCc2nnc(NC(=O)Cc3ccccn3)s2)cn1` [Example 3, 2-(Pyridin-2-yl)-N-(5-(4-(6-(2-(3-(trifluoromethoxy)phenyl)acetamido)pyridin-3-yl)butyl)-1,3,4-thiadiazol-2-yl)acetamide], in test [1], the inhibition at 0.1 µM lay within 50 to 75% and the inhibition at 1 µM was in the range of 75 to 100%. In addition, in the test on cancer cell lines, the GI50 lay within 400 to 1000 nM.
With `O=C(Cc1cccc(OC(F)(F)F)c1)Nc1ccc(CCCCc2nnc(NC(=O)Cc3ccccn3)s2)c(F)n1` [Example-29, N-(6-fluoro-5-(4-(5-(2-(pyridin-2-yl)acetamido)-1,3,4-thiadiazol-2-yl)butyl)pyridin-2-yl)-2-(3-(trifluoromethoxy)phenyl)acetamide], the inhibition at 0.1 µM in test [1] (0.1 μM, mice brain homogenate) is 50 to 75%. Besides, in test [1] (1 μM, mice brain homogenate), the inhibition at 1 µM is 75 to 100%. In the test with cancer cell lines, the GI50 was 1000 to 5000 nM.
`O=C(Cc1cccnc1)Nc1ccc(CC2CC(c3nnc(NC(=O)Cc4cccc(OC(F)(F)F)c4)s3)C2)cn1` (stereo not drawn) [Example-109, 2-(Pyridin-3-yl)-N-(5-((3-(5-(2-(3-(trifluoromethoxy)phenyl)acetamido)-1,3,4-thiadiazol-2-yl)cyclobutyl)methyl)pyridin-2-yl)acetamide]: the inhibition at 0.1 µM in test [1] (0.1 μM, mice brain homogenate) is 50 to 75%. Further, the inhibition at 1 µM in test [1] (1 μM, mice brain homogenate) is 75 to 100%. In the test on cancer cell lines, this molecule had a GI50 of less than 100 nM.

Usually inhibition stands for the percentage by which the read-out fell short of the control. A word on the GI50: it is the concentration that inhibits growth by half.
